System: MRC5-hT fibroblasts expressing HCMV UL38 (glucose-free medium)
Assay: rescue of cell number (AUC of dose-response) relative to untreated glucose-free control; higher = stronger protection from glucose-starvation-induced cell death
Conditions: glucose: 0 (glucose-free DMEM); 96 h; dose range 0.001-20, 10-point curve µM
Description: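 MRC5-hT fibroblasts stably expressing HCMV UL38 were seeded in 384-well plates, serum-starved for 24 h, switched to glucose-free DMEM, and pin-transferred with a metabolism-focused compound library as 10-point dose curves (1 nM to 20 µM; n=2). Nuclei were counted by Hoechst imaging 96 h after glucose withdrawal.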

Row | Structure (SMILES) | rescue of cell number [%]
1 | NC(=O)c1[nH]nc([C@@H]2O[C@H](CO)[C@@H](O)[C@H]2O)c1O [Pyrazofurin] | 26.5
2 | CCN[C@H]1C[C@H](C)S(=O)(=O)c2sc(S(N)(=O)=O)cc21 [Dorzolamide] | 104
3 | O=C(CCCCCCCn1cc(-c2cccnc2)nn1)Nc1ccccc1-c1ccccc1 [GPP_78] | 20.3
